Results taken from patent US9340577B2, “HLA binding motifs and peptides and their uses” (priority 1992, dated 2016).
No end group written: not given here.

Key:
Assay in all cases: biochemical
Type in all cases: binding
[1] = target: HLA-A*0201 (HLA-A2.1) (Homo sapiens, UniProt P04439, D140Y/D185E/D98H/E176V/E277Q/G131W/G231S/I119V/I121R/I166T/I218V/L300P/L318F/N151K/N90K/P208A/P217A/Q86G/Q94H/R138H/R169H/T345S)
[2] = target: A*0203 (Homo sapiens, UniProt P04439, A173T/D140Y/D185E/D98H/E277Q/G131W/G231S/I119V/I121R/I166T/I218V/L180W/L300P/L318F/N151K/N90K/P208A/P217A/Q86G/Q94H/R138H/R169H/T345S)
[3] = target: A*0202 (Homo sapiens, UniProt P04439, D140Y/D185E/D98H/E176V/E277Q/G131W/G231S/I119L/I121R/I166T/I218V/L180W/L300P/L318F/N151K/N90K/P208A/P217A/Q67R/Q86G/Q94H/R138H/R169H/T345S)
[4] = target: A*0206 (Homo sapiens, UniProt P04439, D140Y/D185E/D98H/E176V/E277Q/F33Y/G131W/G231S/I119V/I121R/I166T/I218V/L300P/L318F/N151K/N90K/P208A/P217A/Q86G/Q94H/R138H/R169H/T345S)
[5] = target: A*6802 (Homo sapiens, UniProt P04439, A269V/D140Y/D185E/E176V/E277Q/E87N/F33Y/G231S/I121R/I166T/I218V/L180W/L300P/L318F/N151K/P208A/P217A/Q86R/R138H/R169H/S129P/T345S/V36M)

Molecule	IC50 [1] [µM]	IC50 [2] [µM]	IC50 [3] [µM]	IC50 [4] [µM]	IC50 [5] [µM]
AIFGVNPTV [Peptide 1578.25]	0.205	0.092	0.021	0.096	
GVLVGVALV [Peptide 9013.0110]	0.946	0.472	6.09	0.056	
ALYSWLIDGNI [Peptide 9013.0315]	0.025	0.007	0.0036	0.092	
NLAEGKEVLL [Peptide 9013.0134]		2.03	0.0092	16.9	> 20
CC(C)[C@H](NC(=O)[C@@H](NC(=O)[C@H](CC(N)=O)NC(=O)[C@H](CCC(N)=O)NC(=O)[C@H](C)NC(=O)[C@H](CCC(=O)O)NC(=O)[C@@H]1CCCN1C(=O)[C@H](CCC(=O)O)NC(=O)[C@H](CS)NC(=O)[C@@H](NC(=O)[C@@H](N)Cc1ccccc1)[C@@H](C)O)[C@@H](C)O)C(=O)O [Peptide 9013.0323]	0.336	0.086	0.029	0.92	
YTYYRPGVNV [Peptide 9013.0208]		0.0029	0.0056	0.075	0.007
GMGCTGWFEV [Peptide 1578.19]		0.062	0.037	1.46	1.32
ITVNNSGSYV [Peptide 9013.0187]	> 20	0.255	0.334	1.01	
ILQHTQELFI [Peptide 9013.0212]		0.594	0.049	> 20	> 20
FLGALKSFL [Peptide 1578.11]	0.719	0.0021	0.0003	1.72	
LTNTGLYNL [Peptide 1481.17]		4.99	0.02	1.83	1.58
KVTIESTPFNV [Peptide 9013.0265]	2.58	0.04		0.093	1.55
ELLLLVHNL [Peptide 9013.0022]		> 20	1.88	7.18	
SLPVSPRLQV [Peptide 9013.0222]	7.31	0.155		> 20	> 20
QLSNGNRTV [Peptide 9013.0095]	15.1	0.054		> 20	> 20
TQELFIPNV [Peptide 9013.0059]	0.308	3.32		0.055	4.93
VLAEAMSAA [Peptide 1516.11]	0.024	0.00087		0.01	0.474
GLSLPVSPRL [Peptide 9013.0220]		3.87	0.223	> 20	> 20
RTLQQLLFA [Peptide 1525.18]	0.948	0.394		0.018	> 20
LLIESTPFNV [Peptide 9013.0128]	0.016	0.0081	0.004	0.062	

Molecule	IC50 [1] [µM]	IC50 [2] [µM]	IC50 [3] [µM]	IC50 [4] [µM]	IC50 [5] [µM]
TLDATYLWWV [Peptide 9013.0158]	0.061	0.468	0.137	0.155	
LLLVHNLPQHV [Peptide 9013.0275]	4.82	0.652		5.14	> 20
QLHTQVLFI [Peptide 9013.0103]		0.039	0.022	5.52	> 20
WQRLLLTASLV [Peptide 9013.0253]		0.019	0.246	0.496	> 20
LIQPYSIYA [Peptide 86.0202]	1.4	2.11		0.428	3.3
ITIGVLVGV [Peptide 9013.0109]		0.016	0.043	0.055	0.009
LQGAIISFV [Peptide 1578.28]	0.042	0.011	0.0066	0.02	
YLIGTQQAT [Peptide 9013.0025]		0.018	0.0026	5.52	8.24
TLVLFIAKI [Peptide 9013.0106]	16.6	0.021		0.029	13
YTLHVIKSDV [Peptide 9013.0151]	4.37	0.972		0.054	0.016
AQYSWFVNGV [Peptide 9013.0172]		0.0024	0.0012	0.013	12
TIESTPFNVV [Peptide 9013.0130]	15.6	0.671		3.23	0.305
GLLVGVALI [Peptide 9013.0111]	0.158	0.013	0.089	0.206	
RLTVKTITVSA [Peptide 9013.0319]		0.091	0.401	1.36	0.27
QLSNGNRTLTV [Peptide 9013.0334]		0.363	0.02	> 20	> 20
TLVTTITVYA [Peptide 9013.0193]	0.781	0.057	0.011	1.74	
VLGEAMSQA [Peptide 1539.08]		0.022	0.021	1.09	> 20
FLQGCIISYA [Peptide 1578.18]	0.093	0.009	0.0026	0.241	
VQWAFDNEV [Peptide 86.0209]		4.52	1.5	0.031	> 20
WLRLLLTASLL [Peptide 9013.0254]	3.48	0.012		11.8	> 20

Molecule	IC50 [1] [µM]	IC50 [2] [µM]	IC50 [3] [µM]	IC50 [4] [µM]	IC50 [5] [µM]
TLYAHIQCL [Peptide 1578.26]	0.269	0.0094	0.0049	0.42	
SLLTFWNPPTV [Peptide 9013.0256]		0.054	0.054	0.536	2.27
FQQSTQELFV [Peptide 9013.0178]		0.046	0.021	0.06	> 20
TVESTPFNV [Peptide 9013.0013]	17.2	6.16	1.91	2.39	
GTFQQSTQEV [Peptide 9013.0175]	> 20	0.431	0.157	2.05	
RQIIGYVIGV [Peptide 9013.0139]		0.02	0.0074	0.047	0.027
WLRLLLTASL [Peptide 9013.0116]	8.82	0.032		17.4	19.8
RLQLSNGNRV [Peptide 9013.0224]	17.6	0.669		> 20	> 20
NLLYGPDDPTI [Peptide 9013.0310]	9.88	8.65		> 20	> 20
NLTVNNSGSYT [Peptide 9013.0303]	> 20	> 20	> 20	> 20	
TLGIMIGVLV [Peptide 9013.0251]		0.197	0.087	2.24	1.78
SLMKFLQGSV [Peptide 1578.04]	0.436	0.0046	0.031	1.45	
AQYSWLIDGNV [Peptide 9013.0314]		0.048	0.062	0.07	15.6
WLNNQSLPV [Peptide 9013.0070]		0.0043	0.0013	0.978	0.197
RILQQLLFT [Peptide 1525.13]		5.25	5.69	0.491	> 20
ILNIIQNDT [Peptide 9013.0033]	> 20	8.01		> 20	> 20
RVLQQLLFI [Peptide 1545.01]	0.027	0.024		0.0085	10.6
SLQELFIPNI [Peptide 9013.0182]		0.035	0.015	0.066	7.46
NVAEGKEVLV [Peptide 9013.0133]	> 20	19.6	1.14	> 20	
LTFWNPPTV [Peptide 9013.0006]	0.0034	0.0023	0.017	0.0052	
